In ChEMBL document CHEMBL3507680, “University of Dundee, Gates Library screen for HepG2 cell viability”:

experiment: Human HepG2 cell viability assay in 384 well format; assay type: toxicity, cell-based; set-up: dose 125 nL, time 70.5 hour; cytotoxicity at 70.5 h: concentration not given beside the values; conditions: HepG2 cells, read-out: Inhibition

| SMILES | cytotoxicity at 70.5 h [%] |
| --- | --- |
| CCOc1c(Br)cc(/C=C/c2ncc(C(=O)O)s2)cc1OC | -11.1 |
| CNC(=O)c1ccnc(CC2COc3c(cccc3OC)C2)c1 (stereo not given) | -25.4 |
| Cc1ccc(-c2cc(-c3nc(CN4CCN(C)CC4)no3)n[nH]2)cc1 | 22.4 |
| CCCS(=O)(=O)N1CCC2(CCC(=O)N(CCc3ccncc3)C2)CC1 | -9.81 |
| Cn1ccnc1C1CCN(S(=O)(=O)c2ccc3[nH]c(=O)[nH]c3c2)CC1 | 15.5 |
| CN(CC1CCCCC1)C(=O)c1ccc(-n2ncc(C#N)c2N)cc1 | -5.32 |
| CCS(=O)(=O)c1nccn1-c1cccc(F)c1 | -9.95 |
| N#Cc1ccc(NCCCOCC2CCOC2)c(F)c1 (stereo not given) | 6.96 |
| CN(CC1(O)CCCCC1)C1CCCN(Cc2noc(C3CC3)n2)C1 (stereo not given) | 16.9 |
| COc1ccc(Oc2ccc(CNC(=O)C(C)n3cncn3)cn2)cc1 (stereo not given) | -0.159 |
| Cc1nc(C2CCCCC2)sc1C(=O)O | 0.584 |
| Cn1cc(-c2nnn3c2COC(CNCc2ccncc2)C3)cn1 (stereo not given) | -2.68 |
| CCN(CC)C(=O)Cn1ccc2cc(NC(=O)COC)ccc21 | -2.77 |
| O=C1N(Cc2cccc(F)c2F)CCCC1(O)CNCC1CCCCC1 (stereo not given) | 0.845 |
| CNC(=O)CN1CCO[C@H]2CN(C(=O)C3CC3)C[C@H]21 | -2.66 |
| Cc1cccc(N2CC3(COCCN(c4ccncn4)C3)OCC2=O)c1 (stereo not given) | 0.341 |
| COc1ccc(CN(C)CC(=O)Nc2ccc3[nH]c(=O)[nH]c3c2)cc1F | -8.14 |
| CCOc1cncc(N2CCCC2c2nnc3n2CCCCC3)n1 (stereo not given) | -3.47 |
| NC(=O)C1CCN(C(=O)NCCNc2ccccn2)CC1 | -1.19 |
| COc1cc(C(=O)N(Cc2ccc(F)cc2)C2CC2)cc2c1OCCO2 | 17.8 |
| COc1cc2c(cc1OC)S(=O)(=O)N(Cc1ccccc1)C2=O | -14.6 |
| O=C(NCc1ccccc1Cn1cncn1)C1CCCCC1 | -9.09 |
| Cc1ccc2c(n1)N(Cc1cccnc1)CCN(C(=O)C1CC=CC1)C2 | -9.79 |

| SMILES | cytotoxicity at 70.5 h [%] |
| --- | --- |
| CCS(=O)(=O)N1CCC2(CC1)CN(c1cccnc1)C(=O)CO2 | -5.49 |
| O=C(NCCc1nncn1C1CC1)C1SCCc2ccccc21 (stereo not given) | -7.17 |
| c1ccc(O[C@@H]2CC[C@H]3[C@H]2OCCN3CC2CCOCC2)nc1 | 1.68 |
| Cc1nc(CN(C)C2CCCN(c3ccccc3)C2)no1 (stereo not given) | -3.56 |
| Cc1ccccc1OCCCC(=O)N1CCCC(n2cncn2)C1 (stereo not given) | 13 |
| O=C(O)C1(O)CCN(c2ccc3cccc(Cl)c3n2)CC1 | -20.3 |
| Cc1cnn(CC2CCCCN2C(=O)c2ccc(CN(C)C)cc2)c1 (stereo not given) | -8.06 |
| CNC(=O)c1ccc(Cn2ccnc2S(C)(=O)=O)cc1 | -0.546 |
| Cc1noc(C)c1CN(C)Cc1nc(N)c2ccccc2n1 | 13.8 |
| O=C(O)c1cc(C2=CCCCC2)cc(S(=O)(=O)NCc2ccccn2)c1 | -8.44 |
| CN(C)Cc1cncc2c1CCN(C1CCOCC1)C2 | -8.32 |
| OCCNc1cc(-c2ccncc2)ncn1 | 0.654 |
| CC[C@@H]1N(Cc2ccncc2)CCC[C@]12CCC(=O)N2CCOC | -4.38 |
| CSc1ccc(C(=O)C2CCCN(C(=O)Cn3cnnn3)C2)cc1 (stereo not given) | -6.73 |
| CC(=O)Nc1nc(C2CCN(C(=O)C3CCC3)CC2)cs1 | -5.93 |
| COCCCN1CCCC12CCN(Cc1cccnc1OC)CC2 | 1.58 |
| CSc1ccc(C(=O)N2CC(=O)N(Cc3ccccc3)CC(O)C2)cc1 (stereo not given) | 0.216 |
| CCN(CC)CCn1ccnc1-c1cccc(O)c1 | 1.22 |
| COc1ccccc1-c1cc(NC(=O)CCC2CCCO2)[nH]n1 (stereo not given) | 36.9 |
| Cc1ccncc1C(=O)N1CC[C@@]2(O)CCN(C3CCCCC3)C[C@H]2C1 | -3.63 |
| CC(C(=O)NS(=O)(=O)Cc1cc(-c2ccccc2)no1)C1CC1 (stereo not given) | -1.89 |
| COc1cccc2c1OCC(NC(=O)NCc1cccs1)C2 (stereo not given) | -0.177 |
